Measurements reported in paper PMC9143817 (Molecules, 2022).
Like-named read-outs stand apart in the source and are kept apart here.

Tests used:
[1] = ABTS^•+-scavenging activity
From the text: A ABTS^•+-scavenging assay measured the ability of pure compounds to decrease the color, reacting directly with the ABTS radical.

[2] = DPPH^•-scavenging activity (Blois method)
From the text: Radical-scavenging assays are often used for screening the antioxidant properties of pure or novel synthesized compounds. For this purpose, the most commonly and widely used radical scavenging method is the DPPH radical-scavenging assay.

[3] = DMPD^•+-scavenging activity
From the text: In this study, DMPD radicals were generated in situ by oxidation with ferric chloride. […] (as a biologically active and bright yellow chemical produced by Curcuma longa species).

[4] = design: method as in ref 3 (usnic acid), 46 (caffeic acid), 47 (uric acid), 48 (tannic acid), 49 (caffeic acid phenethyl ester); concentration or dose not given beside the values; details: at similar concentrations; ref 3 (usnic acid), 46 (caffeic acid), 47 (uric acid), 48 (tannic acid), 49 (caffeic acid phenethyl ester); cited from earlier work
[5] = biological target: T1, acetylcholinesterase (AChE) (Electrophorus electricus, UniProt O42275); assay: biochemical
T1 sequence (O42275 24-633): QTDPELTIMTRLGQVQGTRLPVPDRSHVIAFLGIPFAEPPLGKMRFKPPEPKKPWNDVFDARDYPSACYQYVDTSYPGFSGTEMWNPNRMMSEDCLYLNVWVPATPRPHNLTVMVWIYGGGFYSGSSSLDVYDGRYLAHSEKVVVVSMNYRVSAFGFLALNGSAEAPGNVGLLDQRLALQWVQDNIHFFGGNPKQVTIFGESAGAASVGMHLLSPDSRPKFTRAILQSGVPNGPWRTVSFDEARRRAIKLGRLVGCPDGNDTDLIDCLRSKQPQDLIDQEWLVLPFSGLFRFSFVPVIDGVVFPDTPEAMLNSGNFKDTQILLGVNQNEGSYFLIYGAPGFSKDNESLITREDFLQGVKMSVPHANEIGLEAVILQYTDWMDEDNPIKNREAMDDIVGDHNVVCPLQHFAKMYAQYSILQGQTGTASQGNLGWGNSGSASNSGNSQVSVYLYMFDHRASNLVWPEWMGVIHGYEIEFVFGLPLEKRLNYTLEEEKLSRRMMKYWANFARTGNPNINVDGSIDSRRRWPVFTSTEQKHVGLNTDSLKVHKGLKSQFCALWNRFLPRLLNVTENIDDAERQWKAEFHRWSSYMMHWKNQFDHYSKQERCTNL

α-glycosidase = assay: α-Glycosidase inhibition (p-NPG substrate); type: biochemical; details: read-out: IC50 (nM) α-Gly
Description: The absorbances of samples were measured at 405 nm. One α-glycosidase unit was the enzyme quantity, which catalyzes […] of substrate per minute (pH 7.4).
Lineweaver–Burk graphs were used for the determination of Ki values and other inhibition parameters.

[6] = biological target: T2, carbonic anhydrase II isoenzyme (hCA II) (Homo sapiens, UniProt P00918); assay: CA II inhibition (esterase activity); type: biochemical
T2 construct: Human erythrocytes were used as the CA II isoenzyme source; from tissue; host or cells: human erythrocytes
Description: Human erythrocytes were used as the CA II isoenzyme source. Fresh human erythrocytes were centrifuged at 10,000× g for 30 min. Then, they were precipitated and the serum was separated and adjusted with solid Tris to pH 8.7 [99]. The CA II isoenzyme was purified using Sepharose-4B-L-Tirozyne-sulfanylamide affinity column chromatography [100]. […] During the purification and inhibition process of hCA II, esterase activity was examined.

[7] = biological target: butyrylcholinesterase (BChE) (Equus caballus, UniProt P81908); assay: biochemical
butyrylcholinesterase (BChE), sequence (P81908 whole entry): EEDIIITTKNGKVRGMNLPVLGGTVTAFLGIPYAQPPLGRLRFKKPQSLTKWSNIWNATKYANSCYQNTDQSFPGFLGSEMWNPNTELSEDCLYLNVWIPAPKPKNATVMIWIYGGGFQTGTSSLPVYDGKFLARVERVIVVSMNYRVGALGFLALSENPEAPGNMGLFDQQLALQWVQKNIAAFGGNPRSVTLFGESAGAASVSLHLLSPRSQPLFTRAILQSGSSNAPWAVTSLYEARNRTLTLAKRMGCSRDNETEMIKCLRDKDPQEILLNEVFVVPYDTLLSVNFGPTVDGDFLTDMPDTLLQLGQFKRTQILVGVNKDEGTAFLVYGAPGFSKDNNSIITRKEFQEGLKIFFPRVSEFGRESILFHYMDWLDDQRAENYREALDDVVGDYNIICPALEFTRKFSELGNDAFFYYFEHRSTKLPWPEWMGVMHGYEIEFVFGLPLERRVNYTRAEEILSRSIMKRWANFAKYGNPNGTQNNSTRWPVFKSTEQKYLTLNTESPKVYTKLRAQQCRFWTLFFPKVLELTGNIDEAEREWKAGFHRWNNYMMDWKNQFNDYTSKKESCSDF

[8] = design: concentration or dose not given beside the values; details: at similar concentrations; ref 3 (usnic acid), 50 (eugenol), 51 (resveratrol), 52 (taxifolin), 53 (olivetol); cited from earlier work
[9] = biological target: T1, acetylcholinesterase (AChE); details: literature values, cited from earlier work
[10] = ref 53 (olivetol), 59 (taxifolin)

Compound | ABTS^•+ Scavenging IC50 [1] [µg/mL] | DPPH^• Scavenging IC50 [2] [µg/mL] | DMPD^•+ Scavenging IC50 [3] [µg/mL] | absorbance values for Fe^3+-reducing activity [4] | absorbance values for Cu^2+-reducing activity [8] | further results
COc1ccc(O)c(C(C)(C)C)c1 [BHA, Butylated hydroxyanisole] | 5.07 | 10.10 | 11.99 |  |  | 
Cc1cc(C(C)(C)C)c(O)c(C(C)(C)C)c1 [BHT, butylated hydroxytoluene] | 6.99 | 25.95 | 8.72 |  |  | 
O=C(/C=C/c1ccc(O)c(O)c1)OCCc1ccccc1 [CAPE, caffeic acid phenethyl ester] |  |  |  | 2.509 |  | 
O=c1oc2cc(O)ccc2c2oc3cc(O)ccc3c12 [Coumestrol, 3,9-dihydroxy-6-benzofuran [3,2-c] chromenone] | 12.24 | 25.95 | 12.81 |  |  | IC50 [5]: 21.1 nM; IC50 (α-glycosidase): 27.5 nM; IC50 [6]: 44 nM; Ki [6]: 23.8 ± 2.17 nM; IC50 [7]: 18.2 nM; Ki ([7]; Lineweaver–Burk): 21.7 ± 2.23 nM
Cc1c(C)c2c(c(C)c1O)CCC(C)(C(=O)O)O2 (stereo not drawn) [Trolox] | 6.16 | 7.059 | 4.33 |  |  | 
O=C(O)/C=C/c1ccc(O)c(O)c1 [caffeic acid] |  |  |  | 2.769 |  | 
C=CCc1ccc(O)c(OC)c1 [eugenol] |  |  |  |  | 0.762 | 
CCCCCc1cc(O)cc(O)c1 [olivetol] |  |  |  |  | 1.314 | Ki for AChE [9, 10]: 5.13 µg/mL
O=C1c2c(O)cc(O)cc2OC(c2ccc(O)c(O)c2)C1O (stereo not drawn) [taxifolin] |  |  |  |  | 0.750 | Ki [9, 10]: 54900 nM
O=c1[nH]c(=O)c2[nH]c(=O)[nH]c2[nH]1 [uric acid] |  |  |  | 0.432 |  | 
CC(=O)c1c(O)c(C)c(O)c2c1OC1=CC(=O)C(C(C)=O)C(=O)C12C (stereo not drawn) [usnic acid] |  |  |  | 0.278 | 0.277 | Ki ([9]; ref 3 (usnic acid), 58 (CAPE)): 3.39 nM
Cc1c(C)c2c(c(C)c1O)CC[C@@](C)(CCC[C@H](C)CCC[C@H](C)CCCC(C)C)O2 [α-Tocopherol] | 8.37 | 11.31 | 7.11 |  |  | 
tannic acid |  |  |  | 2.428 |  | 
